One data set has as its target NR2B (Rattus norvegicus (Rat), UniProt Q00960). Put plainly: NR2B rat cortical neuron calcium influx assay. The format is cell-based. Particulars: rat cortical neurons, glutamate and glycine stimulated calcium influx. In outline:
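Primary cortical neurons from E18 Sprague Dawley rat embryos, cultured 2 days, were loaded with Calcium 6 dye in 1.8 mM Ca-HBSS and preincubated with compound 2 h at 37° C. Glutamate plus glycine was added and fluorescence read for 2 min as peak/baseline ratio; duplicate dose-response curves gave IC50 (μM) and maximal inhibition.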

In another data set the target is P-glycoprotein (P-gp) (Homo sapiens (Human), UniProt P08183). Put plainly: MDCK-MDR1 permeability / efflux assay. The data set is classed as in vitro ADME. The conditions noted are these: for efflux ratio at 120 min, 10 μM: dog, MDCK-MDR1, pH 7.4, efflux ratio, read-out: MDCK-MDR1 ER; for MDCK-MDR1 ER: efflux ratio, 10 μM, 120 min. On the procedure: Example 4. Experimental Measurement of Efflux with MDCK-MDR1 Protocol
Sequence of P-glycoprotein (P-gp) (P08183 whole entry): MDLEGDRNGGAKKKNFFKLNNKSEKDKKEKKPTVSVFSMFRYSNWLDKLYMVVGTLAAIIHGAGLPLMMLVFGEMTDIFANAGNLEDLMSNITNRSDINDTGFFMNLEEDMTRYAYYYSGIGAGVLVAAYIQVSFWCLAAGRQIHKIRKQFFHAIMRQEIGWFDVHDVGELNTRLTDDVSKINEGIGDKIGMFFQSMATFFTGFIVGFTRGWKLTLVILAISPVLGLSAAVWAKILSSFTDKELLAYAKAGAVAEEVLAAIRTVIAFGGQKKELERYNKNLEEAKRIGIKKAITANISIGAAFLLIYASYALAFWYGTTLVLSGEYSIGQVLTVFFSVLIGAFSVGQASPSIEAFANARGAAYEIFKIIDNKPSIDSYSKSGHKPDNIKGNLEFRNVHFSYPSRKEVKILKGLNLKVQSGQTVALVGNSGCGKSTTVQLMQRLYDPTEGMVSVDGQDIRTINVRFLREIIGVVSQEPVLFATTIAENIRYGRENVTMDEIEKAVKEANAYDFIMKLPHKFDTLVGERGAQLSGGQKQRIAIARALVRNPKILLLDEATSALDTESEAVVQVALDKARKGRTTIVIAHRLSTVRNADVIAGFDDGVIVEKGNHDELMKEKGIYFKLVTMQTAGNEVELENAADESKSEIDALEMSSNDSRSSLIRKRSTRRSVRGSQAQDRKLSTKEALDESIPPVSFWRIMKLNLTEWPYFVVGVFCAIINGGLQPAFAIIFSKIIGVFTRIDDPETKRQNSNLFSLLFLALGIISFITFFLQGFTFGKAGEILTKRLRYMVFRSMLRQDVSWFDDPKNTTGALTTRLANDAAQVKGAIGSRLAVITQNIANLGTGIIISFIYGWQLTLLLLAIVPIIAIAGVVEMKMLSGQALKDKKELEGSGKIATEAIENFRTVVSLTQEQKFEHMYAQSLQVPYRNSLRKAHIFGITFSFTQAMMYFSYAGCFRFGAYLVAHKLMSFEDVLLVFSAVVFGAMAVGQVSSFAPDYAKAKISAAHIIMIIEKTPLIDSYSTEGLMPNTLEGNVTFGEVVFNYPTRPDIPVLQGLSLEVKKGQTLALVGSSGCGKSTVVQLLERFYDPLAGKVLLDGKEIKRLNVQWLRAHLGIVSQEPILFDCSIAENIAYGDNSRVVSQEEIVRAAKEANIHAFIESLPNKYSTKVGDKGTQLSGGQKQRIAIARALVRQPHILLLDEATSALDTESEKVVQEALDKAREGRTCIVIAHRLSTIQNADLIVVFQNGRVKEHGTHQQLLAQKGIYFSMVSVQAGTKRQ
Cell Culture. MDCK-MDR1 cells were cultured at 37° C. under a 5% CO2 atmosphere, at 95% relative humidity in DMEM containing 10% FBS, penicillin-streptomycin (100 μg/mL), and 2 mM Ala-Gln. Cells were passaged every 3-4 days. For assay purposes, cells were seeded at a density of approximately 265,000 cells/cm^2 of a 96-well Transwell plate (Corning Life Sciences, Acton, MA) and cultured in the same media noted above for a period of 4 days.
Assay. The determination of the apparent permeability (Papp) was performed in both the A→B (apical to basal) and B→A (basal to apical) directions where each compound was assayed in triplicate. The zwitterion bestatin, a poorly permeably compound, was used as marker of monolayer integrity. To initiate the assay, media was aspirated, and the cells and basal chambers were washed three times with Hank's Balanced Salt Solution (HBSS) containing 10 mM HEPES (pH 7.4). Compound test solutions were prepared in triplicate in HBSS containing 10 mM HEPES (pH 7.4) and 0.02% bovine serum albumin (BSA) to a final concentration of 10 μM and centrifuged for 2 min at 4000×g, then applied to the donor compartment at time zero. Additionally, at time zero, a 37° C. solution without test articles (HBSS+10 mM HEPES (pH 7.4) plus 0.02% BSA) was added to the receiver chamber of the Transwell plate. A time zero sample of the donor solution was also sampled for further analysis. The assay was conducted for a period of 120 min at 37° C. without shaking. At the time of assay termination, samples were taken from each donor compartment, and each acceptor compartment of the Transwell plate. To each of the 0 and 120 min samples was added an internal standard solution containing glyburide in water:acetonitrile, 50:50 (v:v). Concentration curves were prepared using a Labcyte Echo in the same matrix noted above. Samples and concentration curve samples were centrifuged for 10 min at 4000×g and subsequently analyzed by mass spectroscopy.
Mass Spectroscopy. Assay samples were loaded onto a RapidFire C4 cartridge by means of a RapidFire autosampler (Agilent, Santa Clara, CA). […] Mass spectroscopy was performed using an AB Sciex AP15500 (Sciex, Frammingham, MA) equipped with a turbo ion spray source. The analyte concentration was calculated from the chromatographic peak area ratio of analyte to internal standard (glibenclamide, m/z 494→169), using Multiquant software V3.0 (Sciex, Framingham, MA).
Calculations. Papp values were determined as
Percent recovery values were determined as:
where VA is the volume of the acceptor (mL), S is the surface area of the membrane, D0 is the donor solution concentration at t=0, D120 is the donor solution concentration at t=120, A120 is the acceptor solution concentration at t=120, and t=time (seconds).
The suitability of a compound for oral dosing and/or for use as a CNS therapeutic is usually conducted by MDCK-MDR1 permeability assay to investigate its drug efflux potential mediated by P-glycoprotein (P-gp). MDCK-MDR1 permeability has been used as a predictor of blood brain barrier permeability in terms of efflux ratio (ER).

The target in another data set is hERG (Homo sapiens (Human), UniProt Q12809). The data set is described as follows: hERG Qpatch assay. The format is cell-based. As for the experimental part:
Example 3. hERG Qpatch Assay Protocol
This assay was performed by the method described in Skepper et al., J. Med. Chem. 2020, 63, 7773-7816:
hERG expressing cell lines were produced in-house at Novartis using CHO-K1 T-Rex inducible plasmid system (Invitrogen) as described previously (Cao et al., Assay Drug Dev. Technol. 2010, 8, 766-780). Cell lines were maintained in Ham's F12 nutrient mixture containing 10% FBS, blasticidin ([…]; InvivoGen), hygromycin B ([…]; InvivoGen), Zeocin ([…], Invitrogen), and neomycin ([…], Invitrogen) using SelecT automated cell culture system (TAP Biosystems, Cambridge, U.K.). hERG and hCav1.2 channels expression was induced with tetracycline (0.25-1 μg/mL, Invitrogen) at least 24 h prior to the experiment.
hERG currents were recorded using the Qpatch automated patch clamp systems (Sophion Bioscience Inc., North Brunswick, NJ) in the whole (single) cell configuration. hERG expressing CHO-K1 cells were harvested with Detachin (Genlantis) and stored in the modified serum-free SFM-2 media (Life Technologies) at room temperature. The extracellular solution contained (in mM) NaCl (145), KCl (4), MgCl2 (1), CaCl2 (2), and HEPES (10), pH 7.4, with NaOH. The intracellular solution contained KCl (135), MgCl2 (1.75), CaCl2 (5.4), EGTA (10), K2-ATP (4), and HEPES (10), pH 7.2, with KOH. After whole cell configuration was achieved, the cell was held at −90 mV, and a 0.1 s pulse to −50 mV was delivered to measure the leaking current, which was subtracted from the tail current online. Then the cell was depolarized to +20 mV for 4 s (prepulse), followed by a 4 s test pulse to −50 mV to reveal the hERG tail current. To monitor changes in the current amplitude, this voltage protocol was repeatedly applied every 20 s. Test compounds were first diluted in DMSO for six dose-response experiments and then dissolved in the extracellular solution using Freedom EVO liquid handling robotic system (Tecan, Männedorf, Switzerland). The final DMSO concentration in samples was 0.3% v/v. Amitriptyline (Sigma) was tested as a positive control. Data were analyzed using in-house developed MatLab-based program (MathWorks, Natick, MA

Where [1] appears, read: Table 2, hERG expressing CHO-K1 cells.

One may read the IC50 as the concentration needed to halve the response being measured.

Sequence of NR2B (Q00960 27-1482, other chains not shown): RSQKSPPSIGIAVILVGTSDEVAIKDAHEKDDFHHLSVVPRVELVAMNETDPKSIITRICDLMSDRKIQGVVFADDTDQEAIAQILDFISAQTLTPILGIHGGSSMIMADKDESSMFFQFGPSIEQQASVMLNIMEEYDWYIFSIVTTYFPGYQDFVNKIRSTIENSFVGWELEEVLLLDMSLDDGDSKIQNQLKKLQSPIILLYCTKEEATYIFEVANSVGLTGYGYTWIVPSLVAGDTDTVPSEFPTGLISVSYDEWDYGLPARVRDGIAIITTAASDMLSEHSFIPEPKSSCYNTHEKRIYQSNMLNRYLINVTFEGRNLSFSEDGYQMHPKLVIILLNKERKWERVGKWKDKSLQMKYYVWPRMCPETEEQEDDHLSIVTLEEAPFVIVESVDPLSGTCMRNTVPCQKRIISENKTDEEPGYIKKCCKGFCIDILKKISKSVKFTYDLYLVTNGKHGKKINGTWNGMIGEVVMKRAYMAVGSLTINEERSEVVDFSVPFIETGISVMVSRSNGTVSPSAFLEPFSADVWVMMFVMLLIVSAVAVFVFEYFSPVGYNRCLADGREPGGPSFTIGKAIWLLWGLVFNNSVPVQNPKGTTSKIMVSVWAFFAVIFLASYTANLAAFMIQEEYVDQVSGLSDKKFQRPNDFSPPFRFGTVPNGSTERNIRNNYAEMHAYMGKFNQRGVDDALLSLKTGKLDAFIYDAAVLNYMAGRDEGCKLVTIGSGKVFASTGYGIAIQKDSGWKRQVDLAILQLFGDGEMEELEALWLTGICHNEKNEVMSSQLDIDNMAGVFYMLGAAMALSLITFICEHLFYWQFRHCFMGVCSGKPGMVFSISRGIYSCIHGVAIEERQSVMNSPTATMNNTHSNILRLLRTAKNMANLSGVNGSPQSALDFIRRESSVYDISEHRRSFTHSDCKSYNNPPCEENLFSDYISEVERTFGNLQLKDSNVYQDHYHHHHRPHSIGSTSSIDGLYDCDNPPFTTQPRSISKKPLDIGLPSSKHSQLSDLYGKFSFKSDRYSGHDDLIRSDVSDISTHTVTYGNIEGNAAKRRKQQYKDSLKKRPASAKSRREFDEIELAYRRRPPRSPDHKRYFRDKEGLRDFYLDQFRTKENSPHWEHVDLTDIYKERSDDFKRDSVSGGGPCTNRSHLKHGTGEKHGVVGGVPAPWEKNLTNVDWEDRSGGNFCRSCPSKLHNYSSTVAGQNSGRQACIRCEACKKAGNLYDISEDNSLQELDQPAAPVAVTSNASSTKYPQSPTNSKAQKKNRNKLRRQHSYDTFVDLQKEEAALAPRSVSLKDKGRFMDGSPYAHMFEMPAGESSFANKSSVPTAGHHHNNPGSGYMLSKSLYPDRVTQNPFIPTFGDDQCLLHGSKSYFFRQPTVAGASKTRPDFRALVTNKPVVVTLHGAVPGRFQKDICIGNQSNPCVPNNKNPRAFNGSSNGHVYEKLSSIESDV
Sequence of hERG (Q12809 whole entry): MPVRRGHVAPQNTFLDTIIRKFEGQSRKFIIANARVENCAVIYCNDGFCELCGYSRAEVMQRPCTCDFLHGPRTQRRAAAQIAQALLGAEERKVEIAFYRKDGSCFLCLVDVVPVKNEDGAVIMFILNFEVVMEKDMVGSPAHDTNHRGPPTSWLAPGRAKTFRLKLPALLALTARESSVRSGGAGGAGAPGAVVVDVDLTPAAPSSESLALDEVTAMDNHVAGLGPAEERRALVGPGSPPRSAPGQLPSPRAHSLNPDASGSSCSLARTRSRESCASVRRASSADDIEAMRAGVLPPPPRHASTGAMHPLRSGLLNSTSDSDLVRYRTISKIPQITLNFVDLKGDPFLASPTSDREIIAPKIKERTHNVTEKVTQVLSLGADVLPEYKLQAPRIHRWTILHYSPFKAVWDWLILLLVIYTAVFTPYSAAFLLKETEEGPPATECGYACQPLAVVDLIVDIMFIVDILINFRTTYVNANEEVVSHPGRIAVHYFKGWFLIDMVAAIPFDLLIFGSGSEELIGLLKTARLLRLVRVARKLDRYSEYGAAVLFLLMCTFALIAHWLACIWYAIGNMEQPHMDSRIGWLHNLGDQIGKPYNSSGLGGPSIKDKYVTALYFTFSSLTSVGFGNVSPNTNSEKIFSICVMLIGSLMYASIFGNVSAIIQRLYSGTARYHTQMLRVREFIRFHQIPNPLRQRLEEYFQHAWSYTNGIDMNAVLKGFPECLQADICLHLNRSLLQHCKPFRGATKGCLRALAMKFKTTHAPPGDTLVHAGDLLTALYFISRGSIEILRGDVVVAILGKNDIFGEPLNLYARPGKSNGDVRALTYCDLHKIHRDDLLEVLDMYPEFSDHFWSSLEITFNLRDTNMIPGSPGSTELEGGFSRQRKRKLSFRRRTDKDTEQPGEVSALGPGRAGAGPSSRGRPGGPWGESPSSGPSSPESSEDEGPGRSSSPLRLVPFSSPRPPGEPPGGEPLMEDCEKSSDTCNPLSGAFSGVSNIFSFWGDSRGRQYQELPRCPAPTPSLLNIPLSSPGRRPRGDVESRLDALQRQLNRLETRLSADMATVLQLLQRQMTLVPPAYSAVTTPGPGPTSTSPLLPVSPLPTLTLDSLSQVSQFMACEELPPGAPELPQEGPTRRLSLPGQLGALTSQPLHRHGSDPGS

On to `O=C1Nc2ccc([C@H](O)CN3C[C@H]4C[C@H](Oc5ccccc5)C[C@@]4(O)C3)cc2CS1` (single isomer, unassigned) [Example 14B], for which the IC50 stood at 0.18 nM on NR2B and 1300 nM at hERG (setting [1]). Also, the efflux ratio at 120 min, 10 μM on P-glycoprotein (P-gp) turned out to be 2.06.
The matching figures for `O=c1[nH]c2c(F)cc([C@@H](O)CN3C[C@H]4C[C@H](Oc5ccccc5)C[C@@]4(O)C3)cc2s1` (single isomer, unassigned) [Example 42A]: 0.19 nM, 2200 nM and 0.93.
In the same order, the values of `O=C1Nc2c(F)cc([C@H](O)CN3C[C@H]4C[C@H](Oc5ccccc5)C[C@@]4(O)C3)cc2CS1` (single isomer, unassigned) [Example 16B] are 0.08 nM, 200 nM and 0.75.
In the same order, the values of `O=C1CCCc2cc([C@H](O)CN3C[C@H]4C[C@H](Oc5ccccc5)C[C@@]4(O)C3)ccc2N1` (single isomer, unassigned) [Example 7B] are 1.9 nM, 15200 nM and 2.07.
For the compound `O=C1CCc2cc([C@H](O)CN3C[C@H]4C[C@H](Oc5ccccc5)C[C@@]4(O)C3)cc(F)c2N1` (single isomer, unassigned) [Example 31B], the figures for the IC50 on NR2B and against hERG (setting [1]) were 4.8 nM and 3900 nM, respectively.
Take `O[C@@H](CN1C[C@H]2C[C@H](Oc3ccc(F)cc3F)C[C@@]2(O)C1)c1ccc2[nH]ncc2c1` [Example 21]: the IC50 was 11 nM at NR2B and 3600 nM at hERG (setting [1]). For the same compound, the “MDCK-MDR1 ER” value on P-glycoprotein (P-gp) came to 1.94.
Turning to `O=c1ccc2cc([C@@H](O)CN3C[C@H]4C[C@H](Oc5ccccc5)C[C@@]4(O)C3)ccc2[nH]1` (single isomer, unassigned) [Example 8A], the IC50 on NR2B came out at 0.8 nM; against hERG (setting [1]), 2800 nM. On P-glycoprotein (P-gp), the efflux ratio at 120 min, 10 μM came to 3.68.
In the same order, the values of `O=C1CCc2cc([C@@H](O)CN3C[C@H]4C[C@H](Oc5ccccc5)C[C@@]4(O)C3)c(F)cc2N1` (single isomer, unassigned) [Example 10A] are 0.41 nM, 2100 nM and 1.11.
In the same order, the values of `O=C1Nc2c(F)cc([C@@H](O)CN3C[C@H]4C[C@H](Oc5ccccc5)C[C@@]4(O)C3)cc2CS1` (single isomer, unassigned) [Example 16A] are 0.051 nM, 400 nM and 0.66.
The matching figures for `O=c1[nH]c2c(F)cc([C@H](O)CN3C[C@H]4C[C@H](Oc5ccccc5)C[C@@]4(O)C3)cc2s1` (single isomer, unassigned) [Example 42B]: 0.04 nM, 800 nM and 0.9.
In the case of `O=C1CCc2cc([C@H](O)CN3C[C@H]4C[C@H](Oc5ccccc5F)[C@H](O)[C@@]4(O)C3)cc(F)c2N1` (single isomer, unassigned) [Example 29B], the IC50 at NR2B worked out at 11 nM; on hERG (setting [1]), 12500 nM. For the same compound, the efflux ratio at 120 min, 10 μM at P-glycoprotein (P-gp) worked out at 4.24.
For the compound `O=C1CCc2cc([C@@H](O)CN3C[C@H]4C[C@H](Oc5ccccc5)C[C@@]4(O)C3)ccc2N1` [Example 1A, 6-((R)-1-hydroxy-2-((3aS,5S,6aR)-3a-hydroxy-5-phenoxyhexahydrocyclopenta[c]pyrrol-2(1H)-yl)ethyl)-3,4-dihydroquinolin-2(1H)-one], the values for the concentration for half-maximal inhibition (IC50) on NR2B and against hERG (setting [1]) were 0.6 nM and 10700 nM, respectively. Besides, the efflux ratio at 120 min, 10 μM at P-glycoprotein (P-gp) was found to be 3.02.
The matching figures for `O=c1[nH]c2ccc([C@@H](O)CN3C[C@H]4C[C@H](Oc5ccccc5)C[C@@]4(O)C3)cc2s1` (single isomer, unassigned) [Example 17A]: 0.013 nM, 200 nM and 1.11.
The matching figures for `O=C1CCc2cc([C@H](O)CN3C[C@H]4C[C@H](Oc5ccccc5)C[C@@]4(O)C3)ccc2N1` [Example 1B, 6-((S)-1-hydroxy-2-((3aS,5S,6aR)-3a-hydroxy-5-phenoxyhexahydrocyclopenta[c]pyrrol-2(1H)-yl)ethyl)-3,4-dihydroquinolin-2(1H)-one]: 1.6 nM, 7600 nM and 2.3.
The matching figures for `O=C1Nc2c(F)cc([C@H](O)CN3C[C@H]4C[C@H](Oc5ccccc5)C[C@@]4(O)C3)cc2CO1` (single isomer, unassigned) [Example 33B]: 3.6 nM, 4900 nM and 0.91.
For `O[C@H](CN1C[C@H]2C[C@H](Oc3ccccc3F)[C@H](O)[C@@]2(O)C1)c1cnc2[nH]ccc2c1` (single isomer, unassigned) [Example 44B], the figures for the IC50 on NR2B and against hERG (setting [1]) were 1190 nM and 15700 nM, respectively. In addition, at P-glycoprotein (P-gp), the efflux ratio at 120 min, 10 μM was 7.34.
With `O=c1[nH]c2ccc([C@H](O)CN3C[C@H]4C[C@H](Oc5ccccc5F)C[C@@]4(O)C3)cc2s1` (single isomer, unassigned) [Example 18B], the figures for the IC50 at NR2B and on hERG (setting [1]) were 0.012 nM and 1200 nM, respectively.
As to `O=C1CCc2cc(C(O)CN3C[C@H]4C[C@H](Oc5ccccc5F)C[C@H]4C3)ccc2N1` (mixture of isomers) [Mixture of two isomers at benzylic position, reference compound], the IC50 on hERG (Table 3, matched pairs) amounted to 500 nM.
“9-fluoro-7-((R)-1-hydroxy-2-((3aS,5S,6aR)-3a-hydroxy-5-phenoxyhexahydrocyclopenta[c]pyrrol-2(1H)-yl)ethyl)-1,5-dihydrobenzo[e][1,4]oxazepin-2(3H)-one [Example 32A]”: the IC50 at NR2B turned out to be 960 nM. Also, the “MDCK-MDR1 ER” value at P-glycoprotein (P-gp) amounted to 0.83.

The record behind these values is patent publication US20240208953A1, “"Cyclopenta[c]pyrrol Negative Allosteric Modulators of NR2B"” (Novartis AG, priority 2021, published 2024).
